In PMC5762315, “Inhibition of polo-like kinase 4 (PLK4): a new therapeutic option for rhabdoid tumors and pediatric medulloblastoma” (Oncotarget, 2017):

What was measured:
[1] = design: method as in PMID 28057846; settings: adults with advanced solid tumors; cited from earlier work
ROS1 = ROS1 (Homo sapiens, UniProt P08922); assay: Kinase activity screening (SelectScreen), ROS1; format: biochemical; settings: ZLYTE
D283 cells = assay: Colony formation assay, D283; format: cell-based, human; settings: 50nM
Protocol: For proliferation assay DAOY was plated with 5 x 10^4 cells per well and D283 was plated with 5 x 10^5 cells per well.

[2] = test system: MON, G401, BT-12, BT-16, DAOY and D283 cell lines; assay: Senescence beta-galactosidase assay; format: cell-based, human; settings: all cell lines (MON, G401, BT-12, BT-16, DAOY, D283); 100nM, 48 hours
Protocol: For each cell line, cells were seeded in 6-well plates in triplicates with 100,000 cells per well. Treatment medium was added the next day and incubated for 48 or 72 hrs. After incubation, cells were washed twice with 1X PBS and 1mL of the Fixation Buffer from the kit was added to each well of the plate and incubated at RT for 5 min. Cells were washed with 1X PBS and 1mL of staining solution from the kit was added to each well and incubated at 37°C without CO2 overnight. The next day, the cells were washed with 1X PBS and the numbers of blue stained cells (which indicate senescent cells) and unstained cells were counted in image J (www.imagej.nih.gov). The percentage of senescent cells was calculated.

[3] = test system: non-neoplastic human fibroblast cells (HFF-SCC058); assay: Immunofluorescence for gamma-tubulin (centriole number), fibroblasts; format: cell-based; settings: 100nM and 500nM
Protocol: (§1) The cells were then blocked in blocking buffer (5% BSA (Jackson Immuno Research Laboratories Inc., USA) in PBST) for 1 hour at RT. The primary antibody ([…] 1:500, Sigma, USA) diluted in 1% BSA in PBST was then added and incubated at 4°C overnight. Then, the cells were washed with 1X PBS thrice. Secondary antibody (Anti-Rabbit IgG (H+L) F (ab’) 2, 1:500, Sigma, USA) diluted in 1% BSA in PBST was added and incubated at RT for 2 hours. Three time washes with 1X PBS were performed. Then, 1mL of DAPI (Thermo Fisher Scientific, USA) in PBS (0.5μl of DAPI in 10 ml PBS) was added to the cells and incubated for 10 min at RT. Finally, 3 time washes with 1X PBS were performed and slides were mounted using Mounting Medium (Thermo Fisher Scientific, USA).

[4] = test system: G401, BT-12, BT-16, DAOY and D283 cell lines; assay: Immunofluorescence for gamma-tubulin (centriole number), other RT and MB lines; format: cell-based, human
Protocol: as §1

[5] = test system: non-neoplastic human fibroblast cell line HFF-SCC058; assay: Flow cytometry cell cycle analysis (polyploidy), fibroblasts; format: cell-based; settings: 100nM
Protocol: Cell cycle evaluation was performed by staining the cells with PI (Thermo Fisher Scientific, USA) according to manufacturer’s instructions. […] Data was analyzed using Modfit LT from Verity Software House. Experiments were performed in triplicates.

ROS1, sequence (P08922 28-2347): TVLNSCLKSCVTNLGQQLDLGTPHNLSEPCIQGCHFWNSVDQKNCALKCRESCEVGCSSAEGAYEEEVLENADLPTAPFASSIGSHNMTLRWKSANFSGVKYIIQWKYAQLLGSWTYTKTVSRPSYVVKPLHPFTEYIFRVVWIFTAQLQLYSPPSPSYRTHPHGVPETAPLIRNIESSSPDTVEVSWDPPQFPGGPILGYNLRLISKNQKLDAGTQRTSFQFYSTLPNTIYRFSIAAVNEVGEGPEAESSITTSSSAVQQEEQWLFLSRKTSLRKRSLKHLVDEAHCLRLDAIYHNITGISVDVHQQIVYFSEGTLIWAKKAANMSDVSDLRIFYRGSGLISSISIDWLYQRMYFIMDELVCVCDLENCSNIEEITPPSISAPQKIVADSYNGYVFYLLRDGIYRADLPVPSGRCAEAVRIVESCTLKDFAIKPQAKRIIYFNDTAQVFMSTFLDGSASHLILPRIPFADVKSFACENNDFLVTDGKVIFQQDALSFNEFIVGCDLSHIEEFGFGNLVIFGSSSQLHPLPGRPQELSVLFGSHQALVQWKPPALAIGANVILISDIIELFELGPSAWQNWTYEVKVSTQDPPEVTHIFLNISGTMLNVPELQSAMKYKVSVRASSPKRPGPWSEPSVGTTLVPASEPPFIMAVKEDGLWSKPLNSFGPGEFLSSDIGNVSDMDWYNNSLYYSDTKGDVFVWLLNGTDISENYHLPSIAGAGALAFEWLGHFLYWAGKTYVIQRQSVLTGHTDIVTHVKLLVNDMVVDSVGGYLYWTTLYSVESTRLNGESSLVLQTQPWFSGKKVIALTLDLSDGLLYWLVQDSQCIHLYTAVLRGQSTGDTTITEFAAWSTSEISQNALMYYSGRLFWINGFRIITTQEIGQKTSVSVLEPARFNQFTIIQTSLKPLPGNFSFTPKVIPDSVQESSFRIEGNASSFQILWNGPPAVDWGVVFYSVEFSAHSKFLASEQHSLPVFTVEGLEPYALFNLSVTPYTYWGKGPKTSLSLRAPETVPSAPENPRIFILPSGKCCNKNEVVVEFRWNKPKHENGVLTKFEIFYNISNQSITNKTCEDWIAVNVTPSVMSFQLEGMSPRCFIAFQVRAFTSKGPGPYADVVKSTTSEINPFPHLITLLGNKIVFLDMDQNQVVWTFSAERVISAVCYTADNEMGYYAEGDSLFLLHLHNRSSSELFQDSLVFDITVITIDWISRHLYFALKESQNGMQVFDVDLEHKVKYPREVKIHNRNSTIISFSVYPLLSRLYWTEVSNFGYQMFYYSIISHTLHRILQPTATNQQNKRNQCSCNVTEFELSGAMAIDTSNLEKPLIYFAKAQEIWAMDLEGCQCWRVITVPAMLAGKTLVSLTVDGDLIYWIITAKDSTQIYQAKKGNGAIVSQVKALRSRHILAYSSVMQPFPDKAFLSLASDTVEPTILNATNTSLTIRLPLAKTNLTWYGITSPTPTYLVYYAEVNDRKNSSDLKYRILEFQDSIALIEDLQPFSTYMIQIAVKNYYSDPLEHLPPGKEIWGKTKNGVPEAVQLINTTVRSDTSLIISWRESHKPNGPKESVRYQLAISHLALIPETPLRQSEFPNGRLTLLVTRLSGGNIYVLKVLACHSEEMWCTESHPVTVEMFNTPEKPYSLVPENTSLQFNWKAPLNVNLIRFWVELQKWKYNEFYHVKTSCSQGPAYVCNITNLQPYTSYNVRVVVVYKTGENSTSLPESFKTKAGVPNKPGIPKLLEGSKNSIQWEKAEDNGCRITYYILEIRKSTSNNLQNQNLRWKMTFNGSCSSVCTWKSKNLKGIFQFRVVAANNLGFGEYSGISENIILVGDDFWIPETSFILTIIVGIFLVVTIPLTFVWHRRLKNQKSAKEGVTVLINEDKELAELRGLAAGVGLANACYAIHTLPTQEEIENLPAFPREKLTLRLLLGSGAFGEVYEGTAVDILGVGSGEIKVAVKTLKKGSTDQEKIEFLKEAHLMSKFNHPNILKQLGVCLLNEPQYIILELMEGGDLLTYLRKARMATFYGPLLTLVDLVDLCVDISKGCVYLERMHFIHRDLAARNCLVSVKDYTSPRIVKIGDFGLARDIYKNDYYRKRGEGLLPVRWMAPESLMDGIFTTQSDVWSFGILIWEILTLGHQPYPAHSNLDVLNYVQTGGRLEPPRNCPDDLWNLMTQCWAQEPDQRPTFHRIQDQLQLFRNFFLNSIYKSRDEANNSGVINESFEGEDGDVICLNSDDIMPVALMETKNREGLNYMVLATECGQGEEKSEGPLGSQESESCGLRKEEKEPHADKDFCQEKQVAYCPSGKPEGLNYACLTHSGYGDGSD

## COc1ccc2c(c1)[C@]1(C[C@H]1c1ccc3c(/C=C/c4ccc(CN5C[C@@H](C)O[C@@H](C)C5)cc4)n[nH]c3c1)C(=O)N2 [CFI-400945]
[1]
  tolerability, preliminary phase I results: well tolerated at doses up to 72 mg
ROS1
  % Inhibition Duplicate #1: 99%
D283 cells
  colony formation: Complete inhibition
[2]
  senescent cells (beta galactosidase): significant increase
[3]
  paradoxical effect on centriole number: not observed
[4]; 100nM
  centrioles' number: increase
[4]; 500nM
  centrioles' number: significant decrease
[5]
  polyploidy (cell cycle analysis): No effect
